Test results reported in ChEMBL document CHEMBL1201862, “PubChem BioAssay data set” (2004).
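Exposure lasted 48 hours, with cells grown in 96-well plates and compounds tested at five concentrations. GI50 marks 50% less growth.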 Activity calls are given as the source filed them. Rule as the data show it: active = GI50 up to about 1.1 µM and inactive = higher.

Legend:
Experiment in all cases: DTP human tumour cell line panel, 48 h
786-0 = tested on: 786-0
HCT-15 = tested on: HCT-15
HL-60 = tested on: HL-60
LOX IMVI = tested on: LOX IMVI
MCF7 = tested on: MCF7
MDA-MB-435 = tested on: MDA-MB-435
MOLT-4 = tested on: MOLT-4
NCI-H23 = tested on: NCI-H23
NCI-H522 = tested on: NCI-H522
OVCAR-4 = tested on: OVCAR-4
OVCAR-5 = tested on: OVCAR-5
RPMI-8226 = tested on: RPMI-8226
SK-MEL-5 = tested on: SK-MEL-5
SK-OV-3 = tested on: SK-OV-3
T47D = tested on: T47D
TK-10 = tested on: TK-10
U-251 = tested on: U-251
UACC-257 = tested on: UACC-257

| SMILES | GI50 (786-0) | GI50 (HCT-15) [µM] | GI50 (HL-60) | GI50 (LOX IMVI) | GI50 (MCF7) | GI50 (MDA-MB-435) | GI50 (MOLT-4) | GI50 (NCI-H23) | GI50 (NCI-H522) | GI50 (OVCAR-4) | GI50 (OVCAR-5) | GI50 (RPMI-8226) | GI50 (SK-MEL-5) | GI50 (SK-OV-3) | GI50 (T47D) | GI50 (TK-10) | GI50 (U-251) | GI50 (UACC-257) |
| --- | --- | --- | --- | --- | --- | --- | --- | --- | --- | --- | --- | --- | --- | --- | --- | --- | --- | --- |
| N#Cc1nc(C#N)n(C(=O)c2ccccc2)c1NC(=O)c1ccccc1 | > 100 µM (inactive) | > 100 | > 100 µM (inactive) | > 100 µM (inactive) | > 100 µM (inactive) | > 100 µM (inactive) | > 100 µM (inactive) | > 100 µM (inactive) | > 100 µM (inactive) | > 100 µM (inactive) | > 100 µM (inactive) | > 100 µM (inactive) | > 100 µM (inactive) | > 100 µM (inactive) | > 100 µM (inactive) | > 100 µM (inactive) | > 100 µM (inactive) | > 100 µM (inactive) |
| COC(=O)C1=C(C)NC(=S)NC1c1ccc(N(CCCl)CCCl)cc1Cl (stereo unspecified) | 51.3 µM (inactive) | 9.91 | 39.4 µM (inactive) | 24.8 µM (inactive) | 16.7 µM (inactive) | 12.5 µM (inactive) | 4.55 µM (inactive) | 5.45 µM (inactive) | 31.8 µM (inactive) | 16.3 µM (inactive) | 56.5 µM (inactive) | 1.33 µM (inactive) | 1.82 µM (inactive) | > 100 µM (inactive) | 6.71 µM (inactive) | 32.4 µM (inactive) | 53.6 µM (inactive) | 2.44 µM (inactive) |
| O=C1Nc2ccccc2C(=O)/C1=C/NC(=S)NC1CCCCC1 | > 100 µM (inactive) | > 100 | > 100 µM (inactive) | > 100 µM (inactive) | > 100 µM (inactive) | > 100 µM (inactive) | > 100 µM (inactive) | > 100 µM (inactive) | > 100 µM (inactive) | > 100 µM (inactive) | > 100 µM (inactive) | > 100 µM (inactive) | > 100 µM (inactive) | > 100 µM (inactive) | > 100 µM (inactive) | > 100 µM (inactive) | > 100 µM (inactive) | > 100 µM (inactive) |
| O=S(=O)(/N=c1\[nH]c(-c2cc(O)c(O)c(O)c2)cs1)c1ccc(Cl)cc1Cl | 19.7 µM (inactive) | 17.2 | 41.8 µM (inactive) | 12.8 µM (inactive) | 17.6 µM (inactive) | 22.2 µM (inactive) | 20.7 µM (inactive) | 26.5 µM (inactive) | 17.9 µM (inactive) | 22.1 µM (inactive) | 18.2 µM (inactive) | 19.4 µM (inactive) | 17.1 µM (inactive) | 72.6 µM (inactive) | 15.3 µM (inactive) | 4.65 µM (inactive) | 19 µM (inactive) | 16 µM (inactive) |
| CCCNC(=O)N1CC(CN2CCN(c3ccccc3)CC2)O/C1=N/C(=O)Nc1ccccc1 (stereo unspecified) | > 100 µM (inactive) |  | 3.83 µM (inactive) | 67.8 µM (inactive) | > 100 µM (inactive) | 84.5 µM (inactive) | > 100 µM (inactive) | 73.8 µM (inactive) | 40.7 µM (inactive) | 90.4 µM (inactive) | > 100 µM (inactive) | > 100 µM (inactive) | 40.8 µM (inactive) | > 100 µM (inactive) | 18.2 µM (inactive) | 82.4 µM (inactive) | > 100 µM (inactive) | 46.8 µM (inactive) |
| C=CCN1CCC(OC(=O)C(O)(C#CC)C2CCCC2)CC1 (stereo unspecified) | > 100 µM (inactive) | > 100 |  | > 100 µM (inactive) | > 100 µM (inactive) | > 100 µM (inactive) | > 100 µM (inactive) | > 100 µM (inactive) | > 100 µM (inactive) | > 100 µM (inactive) | > 100 µM (inactive) | > 100 µM (inactive) | > 100 µM (inactive) | > 100 µM (inactive) | > 100 µM (inactive) | > 100 µM (inactive) | > 100 µM (inactive) | > 100 µM (inactive) |
| O=NNc1cnc(O)nc1O | > 100 µM (inactive) | > 100 | 49.3 µM (inactive) | > 100 µM (inactive) | > 100 µM (inactive) | > 100 µM (inactive) | > 100 µM (inactive) | > 100 µM (inactive) | > 100 µM (inactive) | > 100 µM (inactive) |  | > 100 µM (inactive) | > 100 µM (inactive) | > 100 µM (inactive) | > 100 µM (inactive) | > 100 µM (inactive) | > 100 µM (inactive) | > 100 µM (inactive) |
| N#CC1=C(N)OC2=C(CCCc3ccc([N+](=O)[O-])cc32)C1c1ccc(Cl)cc1 (stereo unspecified) | 4.84 µM (inactive) | 3.12 | 1.89 µM (inactive) | 4.6 µM (inactive) | 4.03 µM (inactive) | 5.92 µM (inactive) | 3.21 µM (inactive) | 5.11 µM (inactive) | 6.41 µM (inactive) | 3.3 µM (inactive) | 16.6 µM (inactive) | 4.33 µM (inactive) | 4.38 µM (inactive) | 13.7 µM (inactive) | 3.78 µM (inactive) | 10.6 µM (inactive) | 4.57 µM (inactive) | 6.08 µM (inactive) |
| CCOC(=O)c1cc2cc(C)cc(C(=O)c3ccc([N+](=O)[O-])cc3)c2[nH]1 | 86.7 µM (inactive) | > 100 | > 100 µM (inactive) | > 100 µM (inactive) | > 100 µM (inactive) | > 100 µM (inactive) | > 100 µM (inactive) | > 100 µM (inactive) | > 100 µM (inactive) | > 100 µM (inactive) | > 100 µM (inactive) | > 100 µM (inactive) | > 100 µM (inactive) | > 100 µM (inactive) | > 100 µM (inactive) | > 100 µM (inactive) | 26.6 µM (inactive) | > 100 µM (inactive) |
| CNCC(SC)c1ccc(O)c(O)c1 (stereo unspecified) | 18.6 µM (inactive) | 30.8 | 12.9 µM (inactive) | 24.7 µM (inactive) | 29.2 µM (inactive) | 32.1 µM (inactive) | 17.2 µM (inactive) | 31 µM (inactive) | 13.7 µM (inactive) | 17 µM (inactive) | > 100 µM (inactive) | 21.1 µM (inactive) | 52.8 µM (inactive) | > 100 µM (inactive) | 23.6 µM (inactive) | 19.1 µM (inactive) | 61.1 µM (inactive) | 14.1 µM (inactive) |
| Cc1nc(Nc2ccc(Cl)c(Cl)c2)sc1C(=O)/C=C/c1ccc2c(c1)OCO2 | 20.2 µM (inactive) |  | 18.9 µM (inactive) | 19.4 µM (inactive) | 25.1 µM (inactive) | 20.5 µM (inactive) | 14.9 µM (inactive) | 20 µM (inactive) |  | 17.8 µM (inactive) | 88.7 µM (inactive) | 17.1 µM (inactive) | 33.4 µM (inactive) | 18.7 µM (inactive) | 42.5 µM (inactive) | 24.5 µM (inactive) | 22 µM (inactive) | 31.6 µM (inactive) |
| CC(O)CN1c2ccccc2Sc2ccc(Cl)cc21 (stereo unspecified) | > 10 µM (inactive) | > 10 | > 10 µM (inactive) | > 10 µM (inactive) | > 10 µM (inactive) | > 10 µM (inactive) | > 10 µM (inactive) | > 10 µM (inactive) | > 10 µM (inactive) | > 10 µM (inactive) | > 10 µM (inactive) | > 10 µM (inactive) | > 10 µM (inactive) | > 10 µM (inactive) | > 10 µM (inactive) | > 10 µM (inactive) | > 10 µM (inactive) | > 10 µM (inactive) |
